Structures can show the parent of a compound that is named as a salt. Where two headings read alike, the source gives them in different places.
Tests used:
[1] = molecular target: T1, SARS-CoV-2 PLpro (nsp3 1564–1878) (Severe acute respiratory syndrome coronavirus 2, UniProt P0DTD1); assay: biochemical; set-up: FRET-quenched peptide (Pro3) cleavage by PLpro, 10 min pre-incubation, slope over 20 min, normalised to no-compound control; details: read-out: % of control remaining
[2] = molecular target: T1, SARS-CoV-2 PLpro (nsp3 1564–1878); assay: biochemical; set-up: FRET-quenched peptide (Pro3) cleavage by PLpro, 10 min pre-incubation, slope over 20 min, normalised to no-compound control; details: read-out: % of control remaining; remark: listed apart in the source

CC1CNc2c(cccc2S(=O)(=O)N[C@@H](CCCNC(=N)N)C(=O)N2CC[C@@H](C)C[C@@H]2C(=O)O)C1 (some centres unmarked) [Argatroban (monohydrate)]
remaining activity at 3.75 µM ([1]; Well no.=8454, high concentration screen): 101% | remaining activity at 1.25 µM ([2]; Well no.=8454, low concentration screen): 103%

CNCC(O)c1ccc(O)cc1 (centres unmarked) [Synephrine HCl]
remaining activity at 3.75 µM ([1]; Well no.=4900, high concentration screen): 91.7% | remaining activity at 1.25 µM ([2]; Well no.=4900, low concentration screen): 95.6%

CN(C)C(=O)N=NC(=O)N(C)C [N,N,N',N'-Tetramethylazodicarboxamide]
remaining activity at 3.75 µM ([1]; Well no.=735, high concentration screen): 98.5% | remaining activity at 1.25 µM ([2]; Well no.=735, low concentration screen): 94.9%

O=C(O)Cn1nnc(-c2cc(N3CCC(Oc4cc(F)ccc4Br)CC3)no2)n1 [MK-8245]
remaining activity at 3.75 µM ([1]; Well no.=4842, high concentration screen): 85.1% | remaining activity at 1.25 µM ([2]; Well no.=4842, low concentration screen): 90.5%

CCCCCCCCCCCCCCCCCC(=O)O [Octadecanoic acid]
remaining activity at 3.75 µM ([1]; Well no.=4314, high concentration screen): 96.8% | remaining activity at 1.25 µM ([2]; Well no.=4314, low concentration screen): 101%

C[C@]12CC[C@H](O)C[C@H]1CC[C@@H]1[C@@H]2CC[C@]2(C)[C@@H](C3=CC(=O)OC3)[C@@H](O)C[C@]12O [Gitoxigenin]
remaining activity at 3.75 µM [1]: 104% | remaining activity at 1.25 µM [2]: 105%

O=C(O)c1cccnc1Nc1cccc(C(F)(F)F)c1 [Niflumic acid]
remaining activity at 3.75 µM ([1]; Well no.=995, high concentration screen): 103% | remaining activity at 3.75 µM ([1]; Well no.=2011, high concentration screen): 106% | remaining activity at 1.25 µM ([2]; Well no.=995, low concentration screen): 99.1% | remaining activity at 1.25 µM ([2]; Well no.=2011, low concentration screen): 102%

CCOC(=O)c1cnc2c(cnn2CC)c1NN=C(C)C [Etazolate]
remaining activity at 3.75 µM ([1]; Well no.=2144, high concentration screen): 97.1% | remaining activity at 1.25 µM ([2]; Well no.=2144, low concentration screen): 93.8%

CC[C@]12CCCN3CCc4c(n(c5ccccc45)C(=O)C1)[C@@H]32 [(-)-Eburnamonine]
remaining activity at 3.75 µM ([1]; Well no.=3380, high concentration screen): 95% | remaining activity at 1.25 µM ([2]; Well no.=3380, low concentration screen): 96.6%

Cc1cc(C(C)(C)C)cc(C)c1CC1=NCCN1 [Xylometazoline (hydrochloride)]
remaining activity at 3.75 µM ([1]; Well no.=6281, high concentration screen): 106% | remaining activity at 1.25 µM ([2]; Well no.=6281, low concentration screen): 106%

COC(=O)c1sccc1S(=O)(=O)Nc1ccc(Nc2ccccc2)cc1OC [GSK0660]
remaining activity at 3.75 µM ([1]; Well no.=5869, high concentration screen): 109% | remaining activity at 1.25 µM ([2]; Well no.=5869, low concentration screen): 111%

C[C@@H]1CC[C@@]2(NC1)O[C@H]1C[C@H]3[C@@H]4CC=C5C[C@@H](O)CC[C@]5(C)[C@H]4CC[C@]3(C)[C@H]1[C@@H]2C [Solasodine]
remaining activity at 3.75 µM ([1]; Well no.=3467, high concentration screen): 95.3% | remaining activity at 1.25 µM ([2]; Well no.=3467, low concentration screen): 97.1%

CC(Cc1ccc(O)cc1)NCC(O)c1cc(O)cc(O)c1 (centres unmarked) [Fenoterol hydrobromide]
remaining activity at 3.75 µM ([1]; Well no.=705, high concentration screen): 100% | remaining activity at 1.25 µM ([2]; Well no.=705, low concentration screen): 104%

CC(C)CN(C[C@@H](O)[C@H](Cc1ccccc1)NC(=O)O[C@H]1CO[C@H]2OCC[C@H]21)S(=O)(=O)c1ccc(N)cc1 [Darunavir]
remaining activity at 3.75 µM ([1]; Well no.=7318, high concentration screen): 108% | remaining activity at 1.25 µM ([2]; Well no.=7318, low concentration screen): 108%

CCOc1nc2cccc(C(=O)OC(C)OC(=O)OC3CCCCC3)c2n1Cc1ccc(-c2ccccc2-c2nn[nH]n2)cc1 (centres unmarked) [Candesartan (Cilexetil)]
remaining activity at 3.75 µM ([1]; Well no.=7673, high concentration screen): 92.5% | remaining activity at 1.25 µM ([2]; Well no.=7673, low concentration screen): 95.7%

COc1cc2c(=O)c(-c3ccc(O)cc3)coc2cc1O [Glycitein]
remaining activity at 3.75 µM ([1]; Well no.=6248, high concentration screen): 101% | remaining activity at 1.25 µM ([2]; Well no.=6248, low concentration screen): 98.2%

N#Cc1c(C2CCNCC2)cc(-c2c(O)cccc2OCC2CC2)nc1N [IKK-2 Inhibitor VIII]
remaining activity at 3.75 µM ([1]; Well no.=2441, high concentration screen): 108% | remaining activity at 1.25 µM ([2]; Well no.=2441, low concentration screen): 104%

CCOC(=O)[C@H](CCc1ccccc1)N[C@@H](C)C(=O)N1Cc2cc(OC)c(OC)cc2C[C@H]1C(=O)O [Moexipril HCl]
remaining activity at 3.75 µM ([1]; Well no.=4760, high concentration screen): 97.7% | remaining activity at 1.25 µM ([2]; Well no.=4760, low concentration screen): 97.7%

O=C(O)[C@@H]1C[C@H](C(=O)O)N1 [cis-Azetidine-2,4-dicarboxylic acid]
remaining activity at 3.75 µM ([1]; Well no.=20, high concentration screen): 99.7% | remaining activity at 1.25 µM ([2]; Well no.=20, low concentration screen): 101%

COc1ncc(-c2ccc3nccc(-c4ccnnc4)c3c2)cc1NS(=O)(=O)c1ccc(F)cc1F [GSK2126458]
remaining activity at 3.75 µM ([1]; Well no.=5308, high concentration screen): 94.1% | remaining activity at 1.25 µM ([2]; Well no.=5308, low concentration screen): 95.7%

CCCc1ncc(C[n+]2ccccc2C)c(N)n1 [Amprolium HCl]
remaining activity at 3.75 µM ([1]; Well no.=8588, high concentration screen): 108% | remaining activity at 1.25 µM ([2]; Well no.=8588, low concentration screen): 106%

CNC[C@H](O)c1ccc(O)c(O)c1 [Epinephrine bitartrate (Adrenalinium)]
remaining activity at 3.75 µM ([1]; Well no.=5254, high concentration screen): 101% | remaining activity at 1.25 µM ([2]; Well no.=5254, low concentration screen): 105%

CCCCCCCC[C@H](O)/C=C/C=C\C=C\[C@H](O)CCCC(=O)O [Leukotriene B3]
remaining activity at 3.75 µM ([1]; Well no.=4421, high concentration screen): 101% | remaining activity at 1.25 µM ([2]; Well no.=4421, low concentration screen): 102%

CCn1nc(C)cc1C(=O)Nc1nc2cc(C(N)=O)cc(OC)c2n1C/C=C/Cn1c(NC(=O)c2cc(C)nn2CC)nc2cc(C(N)=O)cc(OCCCN3CCOCC3)c21 [diABZI STING agonist-1 (trihydrochloride)]
remaining activity at 3.75 µM ([1]; Well no.=8553, high concentration screen): 102% | remaining activity at 1.25 µM ([2]; Well no.=8553, low concentration screen): 110%

O=C(O[C@H]1C[N+]2(CCCOc3ccccc3)CCC1CC2)C(O)(c1cccs1)c1cccs1 [Aclidinium Bromide]
remaining activity at 3.75 µM ([1]; Well no.=5358, high concentration screen): 97.4% | remaining activity at 1.25 µM ([2]; Well no.=5358, low concentration screen): 100%

CC[C@@H](C(=O)O)[C@@H]1O[C@@H]([C@@H](C)[C@H](O)[C@H](C)C(=O)[C@H](CC)[C@H]2O[C@]3(C=C[C@@H](O)[C@]4(CC[C@@](C)([C@H]5CC[C@](O)(CC)[C@H](C)O5)O4)O3)[C@H](C)C[C@@H]2C)[C@@H](C)C[C@@H]1C [Narasin]
remaining activity at 3.75 µM ([1]; Well no.=3258, high concentration screen): 96% | remaining activity at 1.25 µM ([2]; Well no.=3258, low concentration screen): 94.4%

CC1=CC(=O)C2=C(C)CC[C@@H]3[C@H](OC(=O)[C@H]3C)[C@@H]12 [Leucomisine]
remaining activity at 3.75 µM ([1]; Well no.=3248, high concentration screen): 96.8% | remaining activity at 1.25 µM ([2]; Well no.=3248, low concentration screen): 94.5%

C[C@H]1O[C@@H](n2cnc3c(N)ncnc32)[C@H](O)[C@@H]1O [5'-Deoxyadenosine]
remaining activity at 3.75 µM ([1]; Well no.=7251, high concentration screen): 99% | remaining activity at 3.75 µM ([1]; Well no.=7904, high concentration screen): 94.7% | remaining activity at 1.25 µM ([2]; Well no.=7251, low concentration screen): 97.6% | remaining activity at 1.25 µM ([2]; Well no.=7904, low concentration screen): 91.4%

CC(C)C[C@H](CO)Nc1nc(S[C@@H](C)c2ccccc2)nc2nc(N)sc12 [AZD8797]
remaining activity at 3.75 µM ([1]; Well no.=8313, high concentration screen): 103% | remaining activity at 1.25 µM ([2]; Well no.=8313, low concentration screen): 103%

O=CC[C@@H](O)[C@H](O)[C@H](O)CO [2-Deoxy-D-glucose]
remaining activity at 3.75 µM ([1]; Well no.=8302, high concentration screen): 101% | remaining activity at 1.25 µM ([2]; Well no.=8302, low concentration screen): 100%

CC1CN(S(=O)(=O)c2cccc3cnccc23)CCN1 (centres unmarked) [1-(5-Isoquinolinylsulfonyl)-3-methylpiperazine dihydrochloride]
remaining activity at 3.75 µM ([1]; Well no.=869, high concentration screen): 104% | remaining activity at 1.25 µM ([2]; Well no.=869, low concentration screen): 106%

C[C@H](NC(=O)C(C)(C)Oc1ccc(C(F)(F)F)cn1)[C@@H](Cc1ccc(Cl)cc1)c1cccc(C#N)c1 [Taranabant]
remaining activity at 3.75 µM ([1]; Well no.=7147, high concentration screen): 87.5% | remaining activity at 1.25 µM ([2]; Well no.=7147, low concentration screen): 103%

Reference: paper PMC8286840, “Identifying SARS-CoV-2 antiviral compounds by screening for small molecule inhibitors of Nsp3 papain-like protease” (Biochemical Journal, 2021)
